Results on 38 compounds are retold here after patent publication US8653075B2, “Therapeutic methods employing substituted piperidines which are CCR3 antagonists” (Boehringer Ingelheim International GmbH, priority 2009, dated 2014).

Molecules are shown by their SMILES. pKi: −log10 of the molar value.

The assay concerns the target T1, human chemokine receptor CCR3 (Homo sapiens, UniProt P51677).
T1 construct: expressed in transfected cells; host or cells: K562 cell line (hCCR3-C1 cells), membrane preparation
T1 sequence (P51677 1-355): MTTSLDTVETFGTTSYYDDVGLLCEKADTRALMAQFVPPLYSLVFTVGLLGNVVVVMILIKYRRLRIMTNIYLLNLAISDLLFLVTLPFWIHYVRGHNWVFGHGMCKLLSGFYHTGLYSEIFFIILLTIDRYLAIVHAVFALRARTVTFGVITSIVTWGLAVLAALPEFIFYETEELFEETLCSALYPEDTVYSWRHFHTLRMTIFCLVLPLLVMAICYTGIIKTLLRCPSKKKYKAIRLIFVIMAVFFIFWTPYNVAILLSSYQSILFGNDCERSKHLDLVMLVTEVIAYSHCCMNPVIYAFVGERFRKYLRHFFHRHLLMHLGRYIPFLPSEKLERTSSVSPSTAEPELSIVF
Kind of assay: CCR3 receptor binding assay (SPA, 125I-eotaxin-1 displacement, hCCR3-C1 K562 cell membranes). Conditions: human Eotaxin-1 at human CCR3-Rezeptor; for inhibition at 1 µM: 1 μM test compound, read-out: CCR3 % inh @ 1 μM; for pKi: dose range 0.1 to 10000 nM. The method, then:
The CCR3 receptor binding test is based on a K562 cell line (leukemia myelogenic blast cells) transfected with the human chemokine receptor CCR3 (hCCR3-C1 cells). The cell membranes were prepared by disrupting the hCCR3-C1 cells by […]. The preparation was centrifuged at 400 g 4° C. for 30 min. The supernatant was transferred into fresh tubes followed by a second centrifugation at 48000 g, 4° C. for 1 h. The membranes were re-suspended in the SPA incubation buffer (25 mM HEPES, 25 mM MgCl2 6×H2O, 1 mM CaCl2 2×H2O) without bovine serum albumin and homogenized by passing through a single use needle (Terumo, 23Gx1″). The membranes were stored in aliquots at −80° C.
The CCR3 receptor binding assay was performed in a Scintillation Proximity Assay (SPA) design with the radioligand recombinant human ^125Iodine-eotaxin-1. Cell membranes of hCCR3 C1 cells were again homogenized by passing through a single use needle (Terumo, 23Gx1″) and diluted in SPA incubation buffer in suitable concentrations (0.5-10 μg protein/well) in 96 well microtiter plates (1450-514, Perkin Elmer). The SPA assay was set up in the SPA incubation buffer with a final volume of 200 μl and final concentration of 25 mM HEPES, 25 mM MgCl2 6×H2O, 1 mM CaCl2 2×H2O and 0.1% bovine serum albumin. The SPA assay mixture contained 60 μl of the membrane suspension, 80 μl of Wheat Germ Agglutinin coated PVT beads (organic scintillator, GE Healthcare, RPNQ-0001) 0.2 mg/well), 40 μl of recombinant human ^125Jodine-eotaxin-1 (Biotrend), diluted in SPA buffer to a final concentration of 30.000 dpm per well, and 20 μl of the test compound (dissolved in DMSO dilutions). The SPA assay mixture was incubated for 2 h at room temperature. Bound radioactivity was determined with a scintillation counter (Micro Beta “Trilux”, Wallac). Included were controls for total binding (no displacer added, Bo) and non-specific binding (NSB) by adding unlabelled recombinant human Eotaxin-1 (Biotrend, Cat #300-21) or a reference compound.
Determination of the affinity of a test compound was calculated by subtraction of the non-specific binding (NSB) from the total binding (Bo) or the binding in the presence of the test compound (B) at a given compound concentration. […] The Bo-NSB value was set to 0% inhibition.
% inhibition and Ki values are (human Eotaxin-1 at human CCR3-Rezeptor): […]

As for `CCc1cc(C(=O)N(C)C)cc(NC(=O)[C@H]2CCC(=O)N2C2CCN(Cc3ccc(Cl)c(C)c3)CC2)n1` [Example 184], the inhibition at 1 µM turned out to be 100% and the pKi (commonly the Ki on a negative log10 scale, so that one unit is a factor of ten) is 8.10.
As to `CNC(=O)c1cc(NC(=O)[C@H]2CCC(=O)N2C2CCN(Cc3ccc(Cl)c(C)c3)CC2)cc(C(C)(C)C)c1` [Example 172], the inhibition at 1 µM amounted to 95% and the pKi was 8.15.
Regarding `Cc1cc(CN2CCC(N3C(=O)CC[C@@H]3C(=O)Nc3cccc(-c4c[nH]cn4)c3)CC2)ccc1Cl` [Example 27], the inhibition at 1 µM amounted to 96% and the pKi is 7.55.
The matching figures for `CC(=O)Nc1nc2c(s1)-c1cc(NC(=O)[C@H]3CCC(=O)N3C3CCN(Cc4ccc(Cl)c(C)c4)CC3)ccc1CC2` [Example 10]: 98% and 7.80.
For `Cc1cc(CN2CCC(N3C(=O)CC[C@@H]3C(=O)Nc3cc(-c4nc[nH]n4)ccn3)CC2)ccc1Cl` [Example 211], in that order: 93% and 7.32.
The matching figures for `Cc1cc(CN2CCC(N3C(=O)CC[C@@H]3C(=O)Nc3cc(C(N)=O)cc(C(N)=O)c3)CC2)ccc1Cl` [Example 32]: 82% and 6.84.
With `Cc1cc(CN2CCC(N3C(=O)CC[C@@H]3C(=O)Nc3cc(C(=O)N(C)C)cc(C(=O)N(C)C)c3)CC2)ccc1Cl` [Example 105], the inhibition at 1 µM stood at 99% and the pKi is 8.30.
The matching figures for `CCNS(=O)(=O)c1cccc(NC(=O)[C@H]2CCC(=O)N2C2CCN(Cc3ccc(Cl)c(C)c3)CC2)c1` [Example 4]: 99% and 8.30.
The matching figures for `Cc1cc(CN2CCC(N3C(=O)CC[C@H]3C(=O)Nc3cccc(Cc4ccncc4)c3)CC2)ccc1Cl` [Example 66]: 81% and 6.18.
For `Cc1cc(CN2CCC(N3C(=O)CC[C@@H]3C(=O)Nc3cccc(N4CCNC4=O)c3)CC2)ccc1Cl` [Example 17], in that order: 100% and 8.30.
As to `Cc1cc(CN2CCC(N3C(=O)CC[C@@H]3C(=O)Nc3ccc4c(c3)CC(N(C)C)C4)CC2)ccc1Cl` (stereo partly shown) [Example 64], the inhibition at 1 µM stood at 60% and the pKi is 6.26.
The matching figures for `Cc1cc(CN2CCC(N3C(=O)CC[C@H]3C(=O)NCc3noc(C4CCCC4)n3)CC2)ccc1Cl` [Example 47]: 31% and 5.93.
`CNc1nc(-c2cccc(NC(=O)[C@@H]3CN(C)C(=O)N3C3CCN(Cc4ccc(Cl)c(C)c4)CC3)c2)no1` [Example 128]: the inhibition at 1 µM was determined as 87% and the pKi is 7.02.
For `Cc1cc(CN2CCC(N3C(=O)CC[C@@H]3C(=O)N3CCc4cccc(Br)c4C3)CC2)ccc1Cl` [Example 54], in that order: 90% and 7.05.
For `Cc1cc(CN2CCC(N3C(=O)CC[C@@H]3C(=O)Nc3cc(C(=O)N(C)CCO)cc(C(C)(C)C)c3)CC2)ccc1Cl` [Example 170], in that order: 100% and 8.22.
For `Cc1nccc(-c2cccc(NC(=O)[C@H]3CCC(=O)N3C3CC4CCC(C3)N4Cc3ccc(Cl)c(C)c3)c2)n1` (stereo partly shown) [Example 86], in that order: 65% and 6.38.
With `CNC(=O)c1cc(NC(=O)[C@H]2CCC(=O)N2C2CCN(Cc3ccc(Cl)c(C)c3)CC2)ccc1OC` [Example 180], the inhibition at 1 µM stood at 97% and the pKi was 7.80.
For `Cc1cc(CN2CCC(N3C(=O)OC[C@H]3C(=O)Nc3cccc(C#N)c3)CC2)ccc1Cl` [Example 116], in that order: 93% and 7.33.
On to `Cc1cc(CN2CCC(N3C(=O)CC[C@@H]3C(=O)Nc3nc(C(C)C)c(C(=O)N(C)C)s3)CC2)ccc1Cl` [Example 189], for which the inhibition at 1 µM turned out to be 100% and the pKi is 8.40.
The matching figures for `COc1cc(NC(=O)[C@H]2CCC(=O)N2C2CCN(Cc3ccc(Cl)c(C)c3)CC2)ccc1N1CCCCC1=O` [Example 34]: 80% and 6.82.
For `CCN(CC)C(=O)c1cccc(NC(=O)[C@H]2CCC(=O)N2C2CCN(Cc3ccc(Cl)c(C)c3)CC2)c1` [Example 157], in that order: 99% and 7.82.
The matching figures for `Cc1cc(CN2CCC(N3C(=O)CC[C@@H]3C(=O)Nc3cccc(-c4nnnn4C)c3)CC2)ccc1Cl` [Example 1]: 101% and 8.40.
Regarding `CNC(=O)c1cccc(NC(=O)[C@H]2CCC(=O)N2C2CCN(Cc3ccc(F)c(Cl)c3)CC2)c1` [Example 203], the inhibition at 1 µM was determined as 75% and the pKi was 6.63.
The matching figures for `Cc1cc(CN2CCC(N3C(=O)CC[C@@H]3C(=O)Nc3cccc(-c4cnco4)c3)CC2)ccc1Cl` [Example 28]: 97% and 7.54.
Take `CCOC(=O)c1nnc(NC(=O)[C@H]2CCC(=O)N2C2CCN(Cc3ccc(Cl)c(C)c3)CC2)s1` [Example 3]: the inhibition at 1 µM amounted to 75% and the pKi was 6.62.
For the compound `Cc1nc(C2(NC(=O)[C@@H]3CCC(=O)N3C3CCN(Cc4ccc(Cl)c(C)c4)CC3)CCCC2)no1` [Example 51], the inhibition at 1 µM was determined as 30% and the pKi is 5.79.
The matching figures for `COC(=O)c1ccc2c(c1)CCN(C(=O)[C@H]1CCC(=O)N1C1CCN(Cc3ccc(Cl)c(C)c3)CC1)C2` [Example 96]: 51% and 6.17.
`CNC(=O)c1sc(NC(=O)[C@H]2CCC(=O)N2C2CCN(Cc3ccc(Cl)c(C)c3)CC2)nc1C` [Example 190]: the inhibition at 1 µM worked out at 100% and the pKi was 8.22.
Take `COc1ccc2c(c1)CN(C(=O)[C@@H]1CCC(=O)N1C1CCN(Cc3ccc(Cl)c(C)c3)CC1)CC2` [Example 72]: the inhibition at 1 µM was found to be 48% and the pKi is 6.06.
On to `Cc1cc(CN2CCC(N3C(=O)CC[C@@H]3C(=O)Nc3ccc(N4CCCOC4=O)c(C)c3)CC2)ccc1Cl` [Example 33], for which the inhibition at 1 µM worked out at 83% and the pKi was 6.82.
For `Cc1cc(CN2CCC(N3C(=O)CC[C@@H]3C(=O)Nc3cccc(CNC(=O)NC4CCCCC4)c3)CC2)ccc1Cl` [Example 39], in that order: 80% and 6.64.
The matching figures for `Cc1cc(CN2CCC(N3C(=O)CC[C@@H]3C(=O)Nc3cccc(C(=O)N(C)C4CC4)c3)CC2)ccc1Cl` [Example 144]: 100% and 8.15.
For `CCNC(=O)c1cc(NC(=O)[C@H]2CCC(=O)N2C2CCN(Cc3ccc(Cl)c(C)c3)CC2)ccc1C` [Example 165], in that order: 90% and 7.21.
Turning to `COc1ccccc1C1CCCN(C(=O)[C@H]2CCC(=O)N2C2CCN(Cc3ccc(Cl)c(C)c3)CC2)C1` (stereo partly shown) [Example 43], the inhibition at 1 µM came to 59% and the pKi is 6.28.
The matching figures for `CCN(CCO)C(=O)c1cccc(NC(=O)[C@H]2CCC(=O)N2C2CCN(Cc3ccc(Cl)c(C)c3)CC2)c1` [Example 156]: 98% and 7.82.
For `Cc1cc(CN2C3CCC2CC(N2C(=O)CC[C@@H]2C(=O)Nc2cccc(N(CC(=O)N(C)C)S(C)(=O)=O)c2)C3)ccc1Cl` (stereo partly shown) [Example 76], in that order: 97% and 7.43.
As for `CNC(=O)c1cccc(NC(=O)[C@@H]2COC(=O)N2C2CCN(Cc3ccc(Cl)c(C)c3)CC2)c1` [Example 119], the inhibition at 1 µM was determined as 87% and the pKi was 7.09.
For `Cc1cc(CN2CCC(N3C(=O)CC[C@H]3C(=O)N3Cc4ccccc4C(C)(C)C3)CC2)ccc1Cl` [Example 61], in that order: 57% and 6.31.
